The target in series [1] is Calcium/calmodulin-dependent protein kinase type 1D (Homo sapiens) (UniProt Q8IU85). Description: Inhibition of CamK1d (unknown origin) at 0.49 uM relative to control.
The target of series [2] is Calcium/calmodulin-dependent protein kinase type 1 (Homo sapiens) (UniProt Q14012). Description: Inhibition of CaMK1a (unknown origin) at 0.49 uM relative to control.
In series [3] the target is AMP-activated protein kinase, AMPK (Homo sapiens) (UniProt P54646+O43741+P54619+Q9UGJ0+Q9Y478+Q13131+Q9UGI9). Description: Inhibition of AMPK (unknown origin) at 0.49 uM relative to control.
The target of series [4] is T1, Interleukin-1 receptor-associated kinase 4 (Homo sapiens) (UniProt Q9NWZ3).
T1 sequence (whole entry): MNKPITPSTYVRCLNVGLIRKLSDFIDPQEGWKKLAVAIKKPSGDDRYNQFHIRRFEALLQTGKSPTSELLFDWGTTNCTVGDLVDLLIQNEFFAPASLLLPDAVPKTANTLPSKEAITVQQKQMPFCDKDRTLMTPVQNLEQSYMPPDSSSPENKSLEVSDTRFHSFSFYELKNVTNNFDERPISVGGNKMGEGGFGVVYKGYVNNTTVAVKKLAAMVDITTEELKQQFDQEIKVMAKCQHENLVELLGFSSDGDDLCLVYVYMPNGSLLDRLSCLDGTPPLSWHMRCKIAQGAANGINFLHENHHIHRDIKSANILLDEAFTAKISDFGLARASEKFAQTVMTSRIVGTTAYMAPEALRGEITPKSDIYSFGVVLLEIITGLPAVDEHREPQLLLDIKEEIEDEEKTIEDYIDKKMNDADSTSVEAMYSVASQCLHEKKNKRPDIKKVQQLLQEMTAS
Description: Inhibition of IRAK4 (unknown origin) at 0.49 uM relative to control.

Series [5] concerns the target Protein kinase C gamma type (Homo sapiens) (UniProt P05129). Description: Inhibition of PKC-gamma (unknown origin) at 0.49 uM relative to control.
Series [6] relates to Tyrosine-protein kinase ABL1 (Homo sapiens), P00519 [E255K]. Nature of the series: Inhibition of ABL1 E255K mutant (unknown origin) at 0.49 uM relative to control.
For series [7], the target named is Serine/threonine-protein kinase PAK 3 (Homo sapiens) (UniProt O75914). Nature of the series: Inhibition of PAK3 (unknown origin) at 0.49 uM relative to control.
Series [8] deals with Tyrosine-protein kinase TXK (Homo sapiens) (UniProt P42681). Description: Inhibition of TXK (unknown origin) at 0.49 uM relative to control.
For series [9], the target named is Serine/threonine-protein kinase 25 (Homo sapiens) (UniProt O00506). Description: Inhibition of YSK (unknown origin) at 0.49 uM relative to control.
Series [10] concerns the target Protein kinase C eta type (Homo sapiens) (UniProt P24723). Description: Inhibition of PKC-eta (unknown origin) at 0.45 uM relative to control.
For series [11], the target named is RAF proto-oncogene serine/threonine-protein kinase (Homo sapiens) (UniProt P04049). Nature of the series: Inhibition of c-Raf (unknown origin) at 0.45 uM relative to control.
Series [12] deals with Serine/threonine-protein kinase 4 (Homo sapiens) (UniProt Q13043). Nature of the series: Inhibition of MST1 (unknown origin) at 0.45 uM relative to control.
A further series relates to MAP4K2 (Homo sapiens). Nature of the series: Inhibition of GCK (unknown origin) at 0.45 uM relative to control.
Series [13] concerns the target Protein kinase C delta type (Homo sapiens) (UniProt Q05655). Nature of the series: Inhibition of PKC-delta (unknown origin) at 0.45 uM relative to control.
The target in series [14] is Glycogen synthase kinase-3 beta (Homo sapiens) (UniProt P49841). Description: Inhibition of GSK3b (unknown origin) at 0.45 uM relative to control.
For series [15], the target named is Dual specificity protein kinase CLK3 (Homo sapiens) (UniProt P49761). Description: Inhibition of CLK3 (unknown origin) at 0.45 uM relative to control.
For series [16], the target named is SRSF protein kinase 2 (Homo sapiens) (UniProt P78362). Description: Inhibition of SRPK2 (unknown origin) at 0.45 uM relative to control.
Series [17] concerns the target T2, Serine/threonine-protein kinase D2 (Homo sapiens) (UniProt Q9BZL6).
T2 sequence (whole entry): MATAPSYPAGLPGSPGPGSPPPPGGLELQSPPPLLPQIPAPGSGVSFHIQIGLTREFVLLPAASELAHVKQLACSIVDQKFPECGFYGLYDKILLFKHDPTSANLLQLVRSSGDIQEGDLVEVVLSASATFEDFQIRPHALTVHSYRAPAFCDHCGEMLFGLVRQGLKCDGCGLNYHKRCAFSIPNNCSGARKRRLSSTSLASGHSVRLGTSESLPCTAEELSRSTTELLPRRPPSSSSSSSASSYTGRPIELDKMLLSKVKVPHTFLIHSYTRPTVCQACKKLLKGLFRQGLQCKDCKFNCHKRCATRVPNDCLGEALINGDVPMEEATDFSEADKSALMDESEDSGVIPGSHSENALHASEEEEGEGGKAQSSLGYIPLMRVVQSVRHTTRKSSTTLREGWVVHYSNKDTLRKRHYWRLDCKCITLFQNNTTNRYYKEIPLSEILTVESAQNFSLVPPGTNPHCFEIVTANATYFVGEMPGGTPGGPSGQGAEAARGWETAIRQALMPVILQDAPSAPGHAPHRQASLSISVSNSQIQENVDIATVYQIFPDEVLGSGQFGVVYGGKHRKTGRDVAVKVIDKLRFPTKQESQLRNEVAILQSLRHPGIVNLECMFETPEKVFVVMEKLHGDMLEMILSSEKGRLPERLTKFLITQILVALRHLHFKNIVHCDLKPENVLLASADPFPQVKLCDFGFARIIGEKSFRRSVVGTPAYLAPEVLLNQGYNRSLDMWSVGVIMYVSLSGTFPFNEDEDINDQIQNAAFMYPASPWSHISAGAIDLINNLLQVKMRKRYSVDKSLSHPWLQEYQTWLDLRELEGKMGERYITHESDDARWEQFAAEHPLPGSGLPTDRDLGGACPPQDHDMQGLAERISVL
Nature of the series: Inhibition of PKD2 (unknown origin) at 0.45 uM relative to control.

Series [18] has as its target Ephrin type-B receptor 2 (Homo sapiens) (UniProt P29323). Nature of the series: Inhibition of EPHB2 (unknown origin) at 0.45 uM relative to control.
Series [19] addresses Calcium/calmodulin-dependent protein kinase type II subunit beta (Homo sapiens) (UniProt Q13554). Nature of the series: Inhibition of CAMK2 (unknown origin) at 0.078 uM relative to control.
Series [20] concerns the target Receptor-type tyrosine-protein kinase FLT3 (Homo sapiens) (UniProt P36888). Nature of the series: Inhibition of FLT3 (unknown origin) at 0.078 uM relative to control.
Series [21] addresses RAF proto-oncogene serine/threonine-protein kinase (Homo sapiens) (UniProt P04049). Description: Inhibition of c-Raf (unknown origin) at 0.078 uM relative to control.
The nature of series [22]: Unbound fraction in po dosed C57BL/6J mouse plasma by LC-MS/MS analysis. The series is classed as ADME, organism-based.

Broadly, the inhibition is the change of the read-out against control, counted positive when it falls. Usually fraction unbound stands for the share of the substance not bound to proteins or other matrix.

Chain of RAF proto-oncogene serine/threonine-protein kinase (Homo sapiens) (P04049 whole entry): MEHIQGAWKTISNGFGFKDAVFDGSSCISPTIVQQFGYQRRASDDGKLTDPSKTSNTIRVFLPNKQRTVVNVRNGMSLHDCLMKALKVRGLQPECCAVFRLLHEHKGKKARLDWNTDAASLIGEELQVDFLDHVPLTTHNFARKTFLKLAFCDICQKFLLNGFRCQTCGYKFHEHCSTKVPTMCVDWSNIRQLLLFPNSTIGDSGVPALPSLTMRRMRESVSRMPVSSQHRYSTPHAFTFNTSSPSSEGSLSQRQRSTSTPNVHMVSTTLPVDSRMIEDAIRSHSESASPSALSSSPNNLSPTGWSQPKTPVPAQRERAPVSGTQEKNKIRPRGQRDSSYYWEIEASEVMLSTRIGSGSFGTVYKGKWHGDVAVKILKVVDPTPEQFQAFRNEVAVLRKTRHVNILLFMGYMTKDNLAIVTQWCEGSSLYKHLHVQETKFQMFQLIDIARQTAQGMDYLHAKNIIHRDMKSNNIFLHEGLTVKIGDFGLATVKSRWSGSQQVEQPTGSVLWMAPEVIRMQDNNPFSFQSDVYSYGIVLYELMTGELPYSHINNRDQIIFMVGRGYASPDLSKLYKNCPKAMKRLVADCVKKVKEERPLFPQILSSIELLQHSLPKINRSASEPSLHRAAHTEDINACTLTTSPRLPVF
Chain of Calcium/calmodulin-dependent protein kinase type 1 (Homo sapiens) (Q14012 whole entry, looked up): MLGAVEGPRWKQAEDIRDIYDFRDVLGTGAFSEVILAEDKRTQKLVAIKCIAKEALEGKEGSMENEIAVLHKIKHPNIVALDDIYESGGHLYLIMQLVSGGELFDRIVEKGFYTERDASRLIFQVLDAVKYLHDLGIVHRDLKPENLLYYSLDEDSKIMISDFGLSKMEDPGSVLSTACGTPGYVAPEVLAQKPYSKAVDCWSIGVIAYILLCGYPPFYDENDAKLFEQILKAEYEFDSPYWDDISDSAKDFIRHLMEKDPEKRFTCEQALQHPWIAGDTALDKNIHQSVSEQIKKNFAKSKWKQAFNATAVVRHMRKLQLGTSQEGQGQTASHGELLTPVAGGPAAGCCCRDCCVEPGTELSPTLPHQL
Chain of Dual specificity protein kinase CLK3 (Homo sapiens) (P49761 whole entry, looked up): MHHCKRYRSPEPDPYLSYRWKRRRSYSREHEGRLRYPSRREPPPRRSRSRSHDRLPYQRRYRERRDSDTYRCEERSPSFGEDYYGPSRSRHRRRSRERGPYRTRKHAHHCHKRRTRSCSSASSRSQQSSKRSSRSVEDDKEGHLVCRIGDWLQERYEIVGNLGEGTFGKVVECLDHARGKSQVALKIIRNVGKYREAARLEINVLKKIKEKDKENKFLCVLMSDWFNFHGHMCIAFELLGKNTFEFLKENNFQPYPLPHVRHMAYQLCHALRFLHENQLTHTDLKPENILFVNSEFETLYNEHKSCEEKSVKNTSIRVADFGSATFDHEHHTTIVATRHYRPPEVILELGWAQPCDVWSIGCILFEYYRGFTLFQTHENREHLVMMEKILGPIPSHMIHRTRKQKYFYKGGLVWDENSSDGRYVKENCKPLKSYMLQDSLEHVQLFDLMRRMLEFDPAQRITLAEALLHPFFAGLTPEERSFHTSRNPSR
Chain of Receptor-type tyrosine-protein kinase FLT3 (Homo sapiens) (P36888 whole entry): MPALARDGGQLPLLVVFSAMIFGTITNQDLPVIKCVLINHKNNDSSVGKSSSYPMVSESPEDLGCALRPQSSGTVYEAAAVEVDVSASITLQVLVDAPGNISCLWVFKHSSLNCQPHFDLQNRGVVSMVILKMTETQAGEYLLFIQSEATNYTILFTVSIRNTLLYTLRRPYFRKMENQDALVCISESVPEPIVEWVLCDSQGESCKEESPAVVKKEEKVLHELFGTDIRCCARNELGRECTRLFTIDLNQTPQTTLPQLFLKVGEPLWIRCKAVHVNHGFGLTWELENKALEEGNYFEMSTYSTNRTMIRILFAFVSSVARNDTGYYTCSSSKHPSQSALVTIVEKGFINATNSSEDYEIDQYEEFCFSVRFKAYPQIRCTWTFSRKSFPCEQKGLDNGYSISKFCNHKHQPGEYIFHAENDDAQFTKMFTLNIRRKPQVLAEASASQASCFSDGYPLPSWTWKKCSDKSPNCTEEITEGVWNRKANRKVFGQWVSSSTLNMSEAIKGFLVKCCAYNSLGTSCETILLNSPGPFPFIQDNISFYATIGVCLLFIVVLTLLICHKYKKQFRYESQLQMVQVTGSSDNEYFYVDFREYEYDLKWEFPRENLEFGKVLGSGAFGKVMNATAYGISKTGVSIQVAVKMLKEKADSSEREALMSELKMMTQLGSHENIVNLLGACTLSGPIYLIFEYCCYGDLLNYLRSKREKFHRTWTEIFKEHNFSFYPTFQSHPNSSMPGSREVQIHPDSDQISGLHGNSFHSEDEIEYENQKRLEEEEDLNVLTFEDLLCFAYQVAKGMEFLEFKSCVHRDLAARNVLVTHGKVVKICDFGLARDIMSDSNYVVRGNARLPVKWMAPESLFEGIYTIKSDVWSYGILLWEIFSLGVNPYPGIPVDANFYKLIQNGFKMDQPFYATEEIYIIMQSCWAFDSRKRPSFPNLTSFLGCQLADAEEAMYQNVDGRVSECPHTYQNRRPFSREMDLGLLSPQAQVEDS
Chain of Calcium/calmodulin-dependent protein kinase type II subunit beta (Homo sapiens) (Q13554 whole entry): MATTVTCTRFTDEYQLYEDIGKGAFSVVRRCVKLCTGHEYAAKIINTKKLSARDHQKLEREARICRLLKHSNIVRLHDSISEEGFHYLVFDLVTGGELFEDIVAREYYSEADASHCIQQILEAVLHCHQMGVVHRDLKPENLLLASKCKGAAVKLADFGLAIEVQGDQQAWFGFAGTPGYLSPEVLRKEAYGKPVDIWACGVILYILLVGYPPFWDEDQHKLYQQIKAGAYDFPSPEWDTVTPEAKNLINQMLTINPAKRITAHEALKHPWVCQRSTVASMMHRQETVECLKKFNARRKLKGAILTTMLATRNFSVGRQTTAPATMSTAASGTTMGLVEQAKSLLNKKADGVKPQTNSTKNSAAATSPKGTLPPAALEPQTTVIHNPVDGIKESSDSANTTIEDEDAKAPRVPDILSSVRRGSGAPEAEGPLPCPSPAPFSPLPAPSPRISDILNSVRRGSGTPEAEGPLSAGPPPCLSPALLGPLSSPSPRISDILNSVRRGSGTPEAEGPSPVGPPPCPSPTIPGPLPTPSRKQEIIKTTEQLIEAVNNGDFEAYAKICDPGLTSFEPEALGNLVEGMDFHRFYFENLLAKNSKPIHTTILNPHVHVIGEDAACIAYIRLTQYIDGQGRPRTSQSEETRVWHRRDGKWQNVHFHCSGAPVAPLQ
Chain of Tyrosine-protein kinase TXK (Homo sapiens) (P42681 whole entry): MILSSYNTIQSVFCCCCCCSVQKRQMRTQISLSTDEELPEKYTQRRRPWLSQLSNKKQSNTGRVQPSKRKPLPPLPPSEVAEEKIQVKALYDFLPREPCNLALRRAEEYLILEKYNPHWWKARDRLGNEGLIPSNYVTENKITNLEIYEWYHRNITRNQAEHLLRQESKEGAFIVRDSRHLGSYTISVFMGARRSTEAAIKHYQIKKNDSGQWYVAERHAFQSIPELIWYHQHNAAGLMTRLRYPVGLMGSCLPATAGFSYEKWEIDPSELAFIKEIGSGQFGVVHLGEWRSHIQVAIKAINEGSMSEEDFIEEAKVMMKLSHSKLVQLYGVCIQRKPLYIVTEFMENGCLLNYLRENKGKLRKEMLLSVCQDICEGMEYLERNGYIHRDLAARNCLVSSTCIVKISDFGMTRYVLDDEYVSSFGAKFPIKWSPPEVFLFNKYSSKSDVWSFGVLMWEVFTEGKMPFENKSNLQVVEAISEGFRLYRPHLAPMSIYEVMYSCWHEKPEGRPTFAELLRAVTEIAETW
Chain of Glycogen synthase kinase-3 beta (Homo sapiens) (P49841 whole entry, looked up): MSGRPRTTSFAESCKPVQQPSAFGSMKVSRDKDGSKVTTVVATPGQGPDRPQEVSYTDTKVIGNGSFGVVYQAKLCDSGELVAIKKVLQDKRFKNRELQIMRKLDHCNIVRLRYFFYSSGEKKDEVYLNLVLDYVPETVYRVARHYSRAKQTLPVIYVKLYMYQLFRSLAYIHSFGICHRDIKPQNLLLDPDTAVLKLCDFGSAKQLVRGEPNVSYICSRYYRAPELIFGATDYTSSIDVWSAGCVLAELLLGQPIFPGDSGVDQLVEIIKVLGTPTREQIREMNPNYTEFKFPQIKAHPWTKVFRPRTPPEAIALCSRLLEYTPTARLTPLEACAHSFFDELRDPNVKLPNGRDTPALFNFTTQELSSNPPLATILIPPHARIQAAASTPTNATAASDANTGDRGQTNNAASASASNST

Consider `Cc1[nH]nc(C2CC2)c1-c1ccc2c(NC(=O)C3CC3)noc2c1`, for which the inhibition in [1] is -4.3%; in series [2] it was 2.3%; in [3], 2%; in series [4] it was 2%; in series [5], 2%; in series [6] it was 21.3%. Moreover, the inhibition in series [7] is -4.3%; in series [8], -0.3%; in series [9], 4.3%.
Turning to `Cc1n[nH]c(C)c1-c1ccc2c(NC(=O)c3ccc(N4CCN(C)CC4)cc3)n[nH]c2c1`, the inhibition in series [10] was determined as 0.3%; in series [11] it was 7%; in series [12], 33.3%; in the series on MAP4K2 (Homo sapiens) it was 66%; in series [13], 5.3%; in [14], 1.3%. Further, the inhibition in series [15] was determined as 6.7%; in [16], 0.3%; in series [17], 6.7%; in series [18], 6.7%.
Turning to `COC(=O)Nc1noc2cc(-c3c(-c4ccccn4)n[nH]c3C)ccc12`, the results for the inhibition in series [19], in [20] and in series [21] were 3.7%, -0.3% and 0.7%, respectively. In addition, in series [22], the fraction unbound came out at 0.17.
